From PMC10117725, “From an Hsp90 - binding protein to a peptide drug” (microLife, 2022)
Where no end group is shown, it is not given here.

Tested on: S. aureus Newman
Assay: Mouse S. aureus Newman bacteremia model
Assay type: in vivo, NMRI mice
Protocol: About 8- to 10-week-old female NMRI mice were purchased from Envigo (Venray, the Netherlands) and stored under standard temperature, light, and nutrition conditions in the animal facility of the Department of Rheumatology and Inflammation Research, University of Gothenburg. […] To study the effect of L15 on S. aureus bacteremia two separate experiments were performed. The mice were treated intraperitoneally with L15 (10 mg/kg) in 200 µl of PBS every 12 h, starting 2 h before inoculation with bacteria and continuing until the animals were sacrificed. Mice were challenged with septic dose of 2 × 10^6 CFU/mouse of S aureus Newman. To induce the S. aureus systemic infection in NMRI mice, 0.2 ml of S. aureus Newman suspension was inoculated intravenously into the tail vein of the mice. During the course of the experiments, the mice were regularly weighed until the mice were sacrificed. After sacrificing the mice at day 7, kidneys from mice were aseptically removed, homogenised, serially diluted with PBS and enumerated to quantify the bacterial CFUs.

**Q.** Which results are given for TAKGHYFVTTFYRNG [L15]?
**A.** survival during the 7-day observation period (L15 10 mg/kg i.p. every 12 h, 40% of the control group died): all mice treated with L15 survived; bacterial load in the kidneys (L15 10 mg/kg i.p. every 12 h, day 7, vs PBS control): No significant difference; weight loss of infected mice (L15 10 mg/kg i.p. every 12 h from 2 h before i.v. 2 × 10^6 CFU/mouse, 7 days, vs PBS control): significantly reduced; reduction of lethality of S. aureus in the mouse model (mouse bacteremia model): about 40%
